# PubChem BioAssay AID1959 (Broad Institute, 2009)
# Activity calls are given as the source filed them.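 Rule for the calls: active = growth-inhibition EC50 no more than tenfold above the top tested dose; inconclusive = flat fit between 30% and 70% inhibition, or unreliable fit; inactive = EC50 more than tenfold above the top tested dose.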
# Tested on: E. coli NEB5alpha growth, BacTiter-Glo luminescence, 4 h
# Test: Escherichia coli growth inhibition, dose response, counter-screen for MEX-5/POS-1 RNA-binding inhibitor project, luminescence, NEB5alpha (AID 1959);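 note: pUC19-transformed ampicillin-resistant cells grown in LB with ampicillin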
row,Compound,EC50
1,Cc1cccc(-c2c3c(=O)n(C)c(=O)n(C)c3c3cccnn23)c1,> 11 µM (inactive)
2,COc1ccc(-c2cc(C(=O)N/N=C(\C)c3ccco3)c3ccccc3n2)c(OC)c1,> 11 µM (inactive)
3,O=C1c2ccccc2S(=O)(=O)c2cc(N3CCC(C(=O)N4CCCCC4)CC3)ccc21,> 11 µM (inactive)
4,CC(C)(O)[C@H]1O[C@H]2CC[C@@]3(C)[C@@](O)(CC[C@H]4Cc5c([nH]c6ccccc56)[C@@]43C)C2=CC1=O,> 11 µM (inactive)
5,CC1(OC(=O)c2cnc3ccccc3n2)C(=O)C=C2C=C(C3CC3)OC=C2C1=O (stereo not drawn),> 11 µM (inactive)
6,O=C(Cn1cncn1)N/N=C/c1c2ccccc2cc2ccccc12,> 11 µM (inactive)
7,NS(=O)(=O)c1ccc(-c2cccc(/C=C3\SC(=O)NC3=O)c2)cc1,> 11 µM (inactive)
8,CCN(CC)c1ccc(/C=N/NC(=O)c2ccco2)c(O)c1,> 11 µM (inactive)
9,Cc1cc(/C=C2\C(=O)NC(=O)N(Cc3ccccc3)C2=O)c(C)n1C1CC1,> 11 µM (inactive)
10,CCCCCCn1c(O)c(C=NCCCn2ccnc2)c(=O)[nH]c1=O,> 11 µM (inactive)
11,Cc1ccccc1OCC(=O)Nc1ccc2c(c1)C(=O)c1ccccc1C2=O,> 11 µM (inactive)
12,CCN(CC)c1ccc(/C=C2\C(=O)NC(=S)N(c3ccc(OC)cc3OC)C2=O)o1,> 11 µM (inactive)
13,CC(=O)n1c(C=Nc2ccccc2)c(O)c2ccccc21,> 11 µM (inactive)
14,O=C(O)C1Nc2c(C(F)(F)F)ccc(Cl)c2C2C=CCC12 (stereo not drawn),> 11 µM (inactive)
15,Cc1cc([N+](=O)[O-])ccc1-c1ccc(/C=N/NC(=O)c2ccc(Br)o2)o1,> 11 µM (inactive)
16,O=C(O)c1ccccc1-n1c(-c2ccccc2)cc2c1CCCC2=O,> 11 µM (inactive)
17,COc1cc(O)c(C(=O)O)c(-c2cc(O)c(O)cc2C)c1,> 11 µM (inactive)
18,COc1ccc(NC(=O)CCl)cn1,> 11 µM (inactive)
19,CC(C)(C)OC(=O)NCCCCC1=CC2=CC(=O)C(C)(OC(=O)c3ccco3)C(=O)C2=CO1 (stereo not drawn),> 11 µM (inactive)
20,CCOc1ccccc1N1CCN(C(=O)CNC(=O)c2ccccc2F)CC1,> 11 µM (inactive)
21,O=C(NNC(=S)NC(=O)c1ccccc1[N+](=O)[O-])c1ccccc1O,> 11 µM (inactive)
22,O=c1/c(=C\c2ccc(O)cc2)sc2nc(-c3ccccc3)c(-c3ccccc3)n12,> 11 µM (inactive)
23,CC1=CC(=C2N=C(c3ccccc3)OC2=O)C=C(C)O1,> 11 µM (inactive)
24,Cc1cc(C)c2c(=O)[nH]c(=O)n(Cc3ccccc3)c2n1,> 11 µM (inactive)

row,Compound,EC50
1,COc1ccc(N2C(=O)NC(=O)/C(=C\c3cn(C)c4ccccc34)C2=O)cc1,> 11 µM (inactive)
2,COC(=O)Cn1cc(/C=C2\C(=O)NC(=O)N(c3ccccc3)C2=O)c2ccccc21,> 11 µM (inactive)
3,Cc1cc(C)c2c(c1)C1C=CCC1C(c1ccc(S(=O)(=O)N3CCOCC3)cc1)N2 (stereo not drawn),> 11 µM (inactive)
4,O=C(CCN1C(=O)C2CC=C(Cl)CC2C1=O)N1CCCCC1 (stereo not drawn),> 11 µM (inactive)
5,CCOc1ccc(-n2c(O)c(C=Nc3ccc(N(CC)CC)cc3)c(=O)[nH]c2=O)cc1,> 11 µM (inactive)
6,CCCCN(C(=O)c1ccc([N+](=O)[O-])o1)c1c(N)n(CC(C)C)c(=O)[nH]c1=O,> 11 µM (inactive)
7,[O-]/C(=C(\C(=S)NCc1ccco1)[n+]1ccccc1)c1ccccc1Br,> 11 µM (inactive)
8,Cc1c(C=N)c(O)n(C)c(=O)c1C#N,> 11 µM (inactive)
9,CCOC(=O)N1CCC(NC(=O)C(Cc2ccccc2)NC(=O)C2CCCCC2)CC1 (stereo not drawn),> 11 µM (inactive)
10,O=C1CS/C(=C\[N+](=O)[O-])N1c1ccccc1,> 11 µM (inactive)
11,N=c1c(C(=O)NCc2ccc(F)cc2)cc2c(=O)n3ccccc3nc2n1Cc1cccnc1,> 11 µM (inactive)
12,CC1(OC(=O)C2CCCC2)C(=O)C=C2C=C(c3ccsc3)OC=C2C1=O (stereo not drawn),> 11 µM (inactive)
13,COc1ccc(-n2cc(CNCc3cnc4ccccn34)c(-c3cccc(F)c3)n2)cc1,> 11 µM (inactive)
14,N#CC1=C(N)OC2=C(C(=O)CC(c3ccco3)C2)C1c1ccc(OCc2c(F)cccc2Cl)cc1 (stereo not drawn),> 11 µM (inactive)
15,COC(=O)C1=C(C)N(c2ccccc2)/C(=C/c2ccco2)C1=O,> 11 µM (inactive)
16,NC(=O)c1cccc(N=Cc2cc(Cl)cc(Cl)c2O)c1,> 11 µM (inactive)
17,Clc1cc(-c2ccc(/C=N/n3cnnc3)o2)ccc1Br,> 11 µM (inactive)
18,O=c1[nH]c(=O)n(-c2ccc(Br)cc2)c(O)c1C=NCCN1CCCCC1,> 11 µM (inactive)
19,CCOc1c(C=C(C#N)C#N)c2ccccc2n1CC,> 11 µM (inactive)
20,Cc1cc(C)nc(NN2C(=O)C=CC2=O)n1,> 11 µM (inactive)
21,N=c1c(C(=O)NCC2CCCO2)cc2c(=O)n3ccccc3nc2n1Cc1ccccc1Cl (stereo not drawn),> 11 µM (inactive)
22,CCCN1CCc2cc(O)cc3c2[C@H]1Cc1ccc(O)c(O)c1-3,> 11 µM (inactive)
23,Nc1ccc2c(c1)-c1ccccc1S(=O)(=O)N2,> 11 µM (inactive)
24,O=c1[nH]c(=O)n(Cc2ccccc2)c(O)c1C=Nc1ccc(CN2CCOCC2)cc1,> 11 µM (inactive)
